Laboratory results published in article PMC7006784, “The combination of salvianolic acid A with latamoxef completely protects mice against lethal pneumonia caused by methicillin-resistant Staphylococcus aureus” (Emerging Microbes & Infections, 2020).

Experiments:
SrtA [1] = target: T1, SrtA (Staphylococcus aureus, UniProt Q2FV99); test: SrtA activity assay (FRET); assay type: biochemical, S. aureus
T1 construct: The gene encoding SrtA (lacking the N-terminal transmembrane domain (N1–59)); made in house
T1 sequence (Q2FV99 60-206): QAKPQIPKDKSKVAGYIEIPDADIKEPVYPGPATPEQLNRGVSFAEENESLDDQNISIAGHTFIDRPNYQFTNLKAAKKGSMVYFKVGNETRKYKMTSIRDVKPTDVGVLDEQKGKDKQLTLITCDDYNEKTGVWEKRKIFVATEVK
Experimental: The SrtA activity assay was performed by using FRET as described previously. Briefly, a mixture of 4 μM recombinant SrtA and different concentrations of Sal A in a 300 μl reaction volume (50 mM Tris·HCl, 150 mM NaCl and 5 mM CaCl2, pH 7.5) was incubated for 1 h at 37°C. Then, 10 μM substrate peptide was added and incubated for an additional hour. Wells containing all constituents except SrtA served as blank controls. The fluorescence was measured with a microplate reader at λex = 350 nm and λem = 495 nm.

SrtA [2] = target: T1, SrtA; test: Reversible inhibition assay of SrtA; assay type: biochemical, S. aureus; details: after incubation at 10 × IC50 and dilution
Experimental: To evaluate the reversible inhibition by Sal A of SrtA, 100 μl of purified SrtA was incubated with Sal A at a final concentration equal to 10-fold the IC50 for 1 h at 37°C. Then, 9.9 ml reaction buffer was added. Subsequently, 10 μl of the substrate peptide was added to the 190 μl diluted mixture at a final concentration of 10 μM. The fluorescence intensity was measured using a microplate reader at λex = 350 nm and λem = 495 nm. Triplicate measurements were obtained for each data point, and the data are reported as the mean ± SEM.

S. aureus = test: Anti-S. aureus activity (MIC by broth microdilution, growth curve); assay type: cell-based
Experimental: The minimum inhibitory concentration (MIC) of Sal A was determined by broth microdilution according to the NCCLS guidelines. Briefly, overnight cultures of S. aureus were diluted 1:100 with fresh Brain Heart Infusion (BHI) medium supplemented with or without 256 μg/ml Sal A and grown at 37°C with shaking. Absorbance readings were obtained at OD600 at different time intervals.

[3] = test system: adhesion of S. aureus to fibrinogen; test: Fibrinogen binding assay; assay type: cell-based; details: bovine fibrinogen coated plate, crystal violet
Experimental: Overnight cultures of S. aureus were subcultured into fresh medium with or without Sal A and then grown until the OD600 reached 0.5. Then, 100 μl of the bacterial culture was transferred into each well of a polystyrene 96-well plate coated with 20 μg/ml bovine fibrinogen and incubated for 2 h at 37°C. The cell suspension was discarded, and the wells were rinsed twice with PBS. Then, 25% formaldehyde was added and incubated for 30 min, and the plate was washed three times and stained with crystal violet dye (12.5 g/l). The binding of S. aureus to fibrinogen was quantitated as described previously. The data are presented as the mean ± SEM from three separate experiments.

S. aureus biofilm = test: Biofilm formation assay; assay type: cell-based; details: Staphylococcus aureus, 18 h, read-out: inhibition of biofilm formation compared with the untreated group
Experimental: Overnight cultures of S. aureus were diluted 1:100 in BHI media with or without Sal A to an OD600 of 0.6. Then, 5 µl of the bacterial culture was added to 195 µl BHI media with or without Sal A in a 96-well plate. The plate was incubated at 37°C for 18 h to form a biofilm, which was then quantitated as described previously.

A549 cells = test: Invasion assay (internalization of S. aureus into A549 cells); assay type: cell-based; details: CFU count
Experimental: The assay of the internalization of S. aureus into A549 cells was performed as described. Briefly, 3 × 10^5 A549 cells were plated in each well of a 24-well plate and incubated at 37°C in 5% CO2 for 12 h. S. aureus was grown in BHI broth with or without Sal A to an OD600 of 1.0. Then, the bacterial suspension was added to the plate and incubated for 1 h. The bacterial suspension was discarded, and the A549 cells were washed three times with PBS and treated with DMEM containing 300 μg/ml gentamycin. After incubation for 2 h, the plates were washed three times, and the cells were lysed with sterile distilled water. The lysates were diluted 100-fold in PBS and spread onto BHI agar plates in triplicate. The plates were incubated at 37°C for 12 h, and the number of colony-forming unit (CFU) was determined by manual counting.

[4] = test system: S. aureus protein A (SpA); test: SpA-related fluorescence analysis (confocal microscopy); assay type: cell-based; details: 256 μg/ml, FITC-labelled IgG
Experimental: An overnight culture of S. aureus was diluted 1:100 in BHI broth with or without Sal A and grown until the OD600 reached 1.0. After centrifugation at 2,500 × g for 10 min, the bacterial pellets were fixed with 4% formaldehyde solution for 30 min. After washing three times with PBS, 5% BSA was added for blocking, and the bacteria were incubated for 20 min. Then, the bacteria were rinsed with PBS and resuspended in PBS containing FITC-labelled rabbit anti-goat-IgG (Sigma) at a dilution of 1:50 and incubated at 37°C for 3 h. After washing three times with PBS, the bacteria were placed onto poly-lysine-coated glass slides, and the SpA on the cell surface was visualized by confocal microscopy (Zeiss, LSM 880).

[5] = test system: S. aureus protein A (SpA); test: Flow cytometry of FITC-IgG-stained S. aureus (SpA anchoring); assay type: cell-based; details: untreated WT 108.58
Experimental: To quantify the effect of the Sal A on the anchoring of SpA, the FITC-IgG-stained S. aureus was measured by flow cytometry. S. aureus strains were grown overnight and then were diluted 1:100 in BHI broth with or without Sal A and grown until the OD600 reached 1.0. Then, bacteria were harvested by centrifugation at 2,500 × g for 10 min. The collected pellets were washed once with PBS and were incubated in PBS solution containing 0.2% BSA (wt/vol) for 10 min. Afterward, bacteria were washed thrice and then suspended in PBS containing FITC-labelled rabbit anti-goat-IgG at a dilution of 1:50 and incubated at 37°C in the dark for 60 min. After a thorough washing, bacteria were fixed with formaldehyde (2%, vol/vol) for 10 min at room temperature. Fluorescence signal was detected on a FACSCanto flow cytometer (Becton Dickinson, USA) and analyzed using FACSDiva software.

SrtA [6] = test: Western blot of SrtA expression; assay type: cell-based, S. aureus; details: 256, 128, 64, or 32 μg/ml, Western blot with grayscale analysis
Experimental: The dissolved cell wall proteins and cytoplasmic membranes were obtained according to a previously reported method. Equal volumes of protein extract were separated using a 12% SDS-PAGE gel, and the proteins were transferred onto polyvinylidine difluoride membranes (Wako Pure Chemical Industries, Ltd., Osaka, Japan). After blotting, the membrane was blocked with 5% BSA for 2 h and probed with primary antibodies against S. aureus SrtA overnight at 4°C. Next, the membrane was washed and incubated with HRP-labelled goat anti-rabbit IgG. After washing again with PBS, the immunoreactive bands were visualized by an ECL Western blot detection system (GE Healthcare, UK). The primary antibodies against S. aureus SrtA were produced in-house by our team members. The secondary HRP-labelled goat anti-rabbit IgG antibody was obtained from Proteintech (Chicago, USA).

SrtA [7] = target: T1, SrtA; test: Biolayer interferometry assay; assay type: binding, S. aureus
Experimental: The kinetics of the binding of Sal A to SrtA were determined by a biolayer interferometry (BLI) assay using the Octet RED96 system (ForteBio, Inc., Menlo Park, CA) as described previously. Ni-NTA sensors were used to bind the His-tag SrtA protein. The assay buffer used was PBS containing 0.1% bovine serum albumin and 0.02% Tween-20, pH 6.5. Before the assay was performed, the Ni-NTA sensors were pre-wetted in assay buffer for 10 min, and then the Ni-NTA sensors were flushed with buffer for 60 s to generate the baseline. SrtA was immobilized on the surface of the sensor tip by incubating it in […] protein solution for 3600 s. The excess protein was removed by washing the sensor with buffer for 300 s. Subsequently, the sensor was exposed to a cycle of 60 s for the baseline step, 200 s for the association step and 100 s for the dissociation step in different concentrations of Sal A solution (250, 125, 62.5, 31.25 and 15.625 μM). The binding of the sensor to protein without the loading of Sal A served as a control. The data were processed using the double reference subtraction method in Forte Bio analysis software (v6.4).

With `O=C(/C=C/c1ccc(O)c(O)c1/C=C/c1ccc(O)c(O)c1)O[C@H](Cc1ccc(O)c(O)c1)C(=O)O` [Sal A, (2R)-3-(3,4-Dihydroxyphenyl)-2-[(E)-3-[2-[(E)-2-(3,4-dihydroxyphenyl)ethenyl]-3,4-dihydroxyphenyl]prop-2-enoyl]oxypropanoic acid] the IC50 (SrtA [1]) was 11.6 µM, the “SrtA activity recovered in comparison with the control group” value (SrtA [2]) was 88 ± 3.21% and the “growth of S. aureus” value (S. aureus; 40-fold the IC50 (up to 200 μM), growth curve with 256 μg/ml) was “did not inhibit the growth”. For the same compound, the MIC (S. aureus; Staphylococcus aureus, broth microdilution) was greater than 1020 µg/mL, the “adhesion of S. aureus to fibrinogen” value [3] was “inhibited the adhesion of S. aureus to fibrinogen in a dose-dependent manner” and the inhibition at 256 µg/mL (S. aureus biofilm) was 33.1%. For the same compound, the “number of bacteria entering the cells compared to the control group” value (A549 cells) was “significant reduction”, the “level of green fluorescence (SpA on surface) compared with the WT group” value [4] was “considerably reduced” and the “mean value of fluorescence yield (Marker: All)” value [5] was 13.64. For the same compound, the “expression of SrtA” value (SrtA [6]) was “did not impact the expression” and the Kd (SrtA [7]) was 21.5 µM.
